This note sets out measurements from patent US20230123140A1, “DOSE TREATMENTS OF TAUOPATHIES” (AC Immune SA, priority 2020, published 2023).

In data set [1] the test system is Central Nervous System function. In words: Central nervous system evaluation in mice (functional observation battery). The format is in vivo, mouse. Conditions: single oral administration 100, 300 or 750 mg/kg, female CD1 mice. As to the method:
This study was conducted to evaluate the potential modifications of central nervous system (CNS) activity by ACI-3024 when given as single dose to CD1 mice.
Doses of 100, 300 and 750 mg/kg were administered by oral gavage to 8 females/group. The control animals were administered vehicle. The dose volume was 10 mL/kg for all groups. Approximately 2, 4, 6 and 24 hours after the treatment, each mouse was subjected to a functional observation battery in order to investigate possible treatment-induced effects on the CNS or in any of its domains: neurologic, autonomic and behavioral.

The test system of another data set is respiratory function. Kind of data set: Respiratory function evaluation in mice (whole body plethysmography). The following applies: single oral administration 100, 300 and 750 mg/kg, conscious female mice. The data set is classed as in vivo, mouse. Here is the method:
This study was conducted to evaluate the potential modifications of respiratory function by ACI-3024 when given as single dose to CD1 mice.
Doses of 100, 300 and 750 mg/kg were administered by oral gavage to 8 females/group. The control animals were administered vehicle. The dose volume was 10 mL/kg for all groups. Animals underwent a whole body plethysmography carried out starting 30 minutes before dosing up to 5 hours after; moreover, a subsequent 1-hour registration was conducted 24 hours post dose.

In a further data set the test system is Gottingen mini-pig. In words: in vivo. Conditions: minipig. As to the method:
This study was conducted to evaluate the potential toxicity of ACI-3024 in a non-rodent species when given daily to Gottingen mini-pig for 4 weeks, followed by a 2-week recovery period.
Doses tested, 50, 150 and 450 mg/kg were given by p.o. to 3 animals/sex/group daily. The control animals were administered vehicle. The dose volume was 5 mL/kg for all groups.
Clinical signs, body weights, food consumption, electrocardiography, ophthalmology and clinical pathology were evaluated. For each sex/group, a complete necropsy was conducted on 3 animals at the end of the dosing period and on 2 (only control and high dose groups) surviving animals at end of the recovery period.

Data set [2] deals with Tg4510 transgenic mouse model. Kind of data set: Studies of ACI-3024 in the Tg4510 transgenic mouse model (CSF target level). The data set is classed as in vivo. Conditions: derived from studies in Tg4510 transgenic mouse model. As to the method:
The present invention is directed to a compound ACI-3024 for use in the treatment, prevention or alleviation of a disorder or an abnormality associated with Tau protein aggregates or a tauopathy comprising administering said compound at an amount up to or equal to 1500 mg/day to a human subject in need thereof wherein the compound ACI-3024 is constantly present in the human subject CSF at a concentration above or equal to 30 nM level at predose, preferably above or equal to 90 nM level at predose. The predefined predose level of ACI-3024 of 30 nM is derived from studies of ACI-3024 in the Tg4510 transgenic mouse model which reflects the clinical manifestation of tauopathies and determines the minimum concentration of the compound in the CSF necessary to achieve clinical efficacy before another dose of the same compound is given (ie a threshold value below which efficacy would be lost). Preferably, the compound ACI-3024 is present in the human subject CSF at a concentration above or equal to 30 nM, preferably above or equal to 90 nM, during the treatment.

Data set [3] in a line: Toxicokinetics in the 4-week mouse toxicity study. The data set is classed as in vivo. The following applies: for AUC(0-t) / Cmax / Tmax: plasma. As to the method:
This study was conducted to evaluate the potential toxicity of ACI-3024 when given daily by oral gavage to CD1 mice for 4 weeks, followed by a 2-week recovery period. Doses of 100, 300 and 1000 mg/kg were administered by p.o. to 10 animals/sex/group daily. The control animals were administered vehicle. The dose volume was 10 mL/kg for all groups.

The subject of a further data set is healthy subjects. Kind of data set: First-in-human study, multiple ascending dose (MAD) part: safety and tolerability. The format is in vivo. The following applies: MAD cohorts. The source says: A First-In-Human, Randomized, Placebo-Controlled, Double-Blind, SAD/MAD Study to Assess the Safety, Tolerability, Pharmacokinetics, and Pharmacodynamics of ACI-3024
The objective of the study is to assess the safety, tolerability, pharmacokinetics (PK), and pharmacodynamics (PD) of single ascending doses (SAD) and multiple ascending doses (MAD) of ACI-3024 in a first-in-human, randomized, placebo-controlled, double-blind, sequential SAD/MAD study with open-label food effect and pharmacodynamic assessment arms. The study comprises different parts to be conducted in Healthy Volunteers: • 1) one Single Ascending Dose (SAD) part in which several cohorts are being investigated with single ascending doses of ACI-3024. The food effect is also explored in this part. • 2) one Multiple Ascending Dose (MAD) part in which several cohorts are being investigated with multiple ascending doses of ACI-3024. Each study part is assessing the safety, tolerability, pharmacokinetics and pharmacodynamics of ACI-3024.
This part was conducted in elderly non-Japanese healthy subjects (MAD HV1 to MAD HV3 cohorts) and in non-elderly Japanese and non-Japanese healthy male subjects (MAD HV4 cohort).
The healthy subject part of Part III was a multiple dose, sequential group study. Overall, 30 healthy elderly male or female non Japanese subjects are being studied in 3 cohorts (Cohorts MAD HV1 to MAD-HV3), with each cohort consisting of 10 subjects. A cohort of 10 healthy non-elderly male Japanese and non-Japanese subjects were enrolled (MAD HV4) to collect safety, tolerability, PK, and PD biomarker data and to enable direct comparisons between non-elderly Japanese and non-Japanese subjects after multiple doses. The dose used in this cohort is based on previously conducted cohorts in non Japanese elderly healthy subjects to assess the effect of multiple doses in non-elderly male Japanese subjects compared to non-elderly non-Japanese male subjects. The MAD HV4 cohort was dosed in parallel with the MAD HV3 cohort. […]

Setting [4] is: both sexes, mouse, Day 28, 300 mg/kg oral, average M/F CD-1 mice.
Setting [5] is: mouse, Day 28, 300 mg/kg oral, female CD-1 mice.
Where [6] appears, read: mouse, Day 28, 300 mg/kg oral, male CD-1 mice.

On to `Fc1ccc2c3c([nH]c2c1)CCN(c1ccc2oc(N4CCOCC4)nc2c1)C3` [ACI-3024], for which the “effect on Central Nervous System function” value in data set [1] is listed as “no effect”. Besides, the “effect on respiratory parameters” value in the data set with respiratory function was “did not exert effect”. The body weight gain entry in the data set with Gottingen mini-pig was “minimal test item-related reduction”. In data set [2], the “minimum predose CSF level necessary for efficacy (target)” value is 30 nM. The “dose proportionality of plasma exposure” value in data set [3] (100 to 1000 mg/kg) was “less than dose proportionally”. The AUC(0-t) in data set [3] (setting [4]) is 353 µg·h/mL; in data set [3] (setting [5]), 320 µg·h/mL; in data set [3] (setting [6]) it was 386 µg·h/mL. Moreover, the Cmax in data set [3] (setting [4]) is 25800 ng/mL; in data set [3] (setting [5]) it was 23400 ng/mL; in data set [3] (setting [6]), 28300 ng/mL. In addition, the Tmax in data set [3] (setting [4]) stood at 4 h; in data set [3] (female, CD1, mouse, oral, females, high-dose group (1000 mg/kg), delayed), 24 h; in data set [3] (setting [5]), 4 h; in data set [3] (setting [6]) it was 4 h. The “sex difference in exposure” value in data set [3] (in general, except 300 mg/kg/day on Day 28) is recorded as “higher exposure was observed in females than in males”. Further, the accumulation entry in data set [3] (repeated administrations, Day 1 vs. Day 28) is on record as “slight ACI-3024 accumulation”. Further, the “serious adverse events of liver injury possibly related to study drug” value in the data set with healthy subjects (14 days) was 2. In the data set on healthy subjects (14 days, of 89 AEs), the “AEs considered related or possibly related to study drug” value came out at 33. In addition, the SAEs entry in the data set on healthy subjects (dose below 1000 mg/day) was “did not show SAEs”.
